Measurements as given in patent US6579989B1, “Sulphostin analogue and process for producing sulphostin and its analogue” (Zaidan Hojin Biseibutsu Kagaku Kenkyu Kai, priority 1999, dated 2003).

Biological target: T1, dipeptidylpeptidase IV (Rattus norvegicus, UniProt P14740)
T1 construct: partially purified through ammonium sulfate fractionation of a homogenate obtained from a kidney of a rat; from tissue; host or cells: rat kidney homogenate
Experiment: Measurement of dipeptidylpeptidase IV inhibiting activity (glycyl prolyl β-naphthylamide substrate, absorbance at 525 nm)
Type: biochemical
Details: IC50 (dipeptidylpeptidase IV inhibition activity), enzyme partially purified from rat kidney homogenate; pH 7.2, 37° C., 1 hour
Method: Measurement of Dipeptidylpeptidase IV Inhibiting Activity
Water was added to a mixture of 0.025 ml of 3.2 mM glycyl prolyl β-naphthylamide (BACHEM, Switzerland), 0.1 ml of 0.1 M tris-maleic acid buffer solution (pH 7.2) and a compound shown in Table 1, so that a final volume was adjusted to 0.2 ml. The resulting mixed solution was warmed at 37° C. for 10 minutes, and 0.025 ml of a dipeptidylpeptidase IV solution partially purified through ammonium sulfate fractionation of a homogenate obtained from a kidney of a rat was added thereto. Then, the reaction was continued at 37° C. for 1 hour. […] At the same time, a blank test was conducted to measure absorbance (b) of the buffer solution containing no specimen. A dipeptidylpeptidase IV inhibition percent was calculated from the expression: [(b−a)/b]×100.

T1 sequence (P14740 whole entry): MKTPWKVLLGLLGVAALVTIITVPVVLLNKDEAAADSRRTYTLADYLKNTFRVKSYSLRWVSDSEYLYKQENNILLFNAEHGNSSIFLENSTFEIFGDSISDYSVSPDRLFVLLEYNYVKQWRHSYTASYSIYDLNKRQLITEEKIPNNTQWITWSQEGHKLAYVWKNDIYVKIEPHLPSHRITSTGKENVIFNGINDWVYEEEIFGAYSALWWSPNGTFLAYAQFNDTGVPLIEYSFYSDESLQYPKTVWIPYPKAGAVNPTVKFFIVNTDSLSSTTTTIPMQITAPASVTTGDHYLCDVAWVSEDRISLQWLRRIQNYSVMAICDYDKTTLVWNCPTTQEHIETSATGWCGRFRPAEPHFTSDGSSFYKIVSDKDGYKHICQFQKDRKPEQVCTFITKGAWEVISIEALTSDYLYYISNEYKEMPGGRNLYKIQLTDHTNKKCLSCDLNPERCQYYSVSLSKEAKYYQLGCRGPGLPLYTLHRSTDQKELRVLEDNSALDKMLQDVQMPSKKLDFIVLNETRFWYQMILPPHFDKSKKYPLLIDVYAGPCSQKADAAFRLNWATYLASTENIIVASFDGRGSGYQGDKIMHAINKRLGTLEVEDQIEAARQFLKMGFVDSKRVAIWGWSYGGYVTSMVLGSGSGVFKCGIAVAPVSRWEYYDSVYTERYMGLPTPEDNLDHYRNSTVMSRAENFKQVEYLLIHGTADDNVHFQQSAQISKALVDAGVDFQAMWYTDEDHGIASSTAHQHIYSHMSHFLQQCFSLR

Structure (SMILES)	IC50 [nM]
N[C@H]1CCN(P(N)(=O)NS(=O)(=O)O)C1=O (single isomer, unassigned) [Compound 21, 3(S)-Amino-1-((R*)-amino(sulfoamino)phosphinyl)-2-pyrrolidone]	15.1
N[C@H]1CCN(P(N)(=O)NS(=O)(=O)O)C1=O (single isomer, unassigned) [Compound 20, 3(S)-Amino-1-((S*)-amino(sulfoamino)phosphinyl)-2-pyrrolidone]	1820
